Numbered stars: 1 amine (or outer) side, 2 acyl side, 3 side chain; on linkers, the order of the positions; unused ones are H or OH. Side chains are listed from the residue outwards. Peptide text beside a SMILES is read from it. * marks the point of attachment. γGlu = O=C(O)[C@H](CCC(=O)[*:2])N[*:1]; Palmitoyl = CCCCCCCCCCCCCCCC(=O)*
Legend:
Human GlucR = molecular target: T1, Human GlucR (Homo sapiens, UniProt P47871); assay: cAMP activity assay in assay medium (assay 1); format: cell-based; conditions: assay medium; Table 4; read-out: hGlucR EC50
T1 construct: expressed in transfected cells
Description: (§1) Biological Activity of Peptides in Cell-Based cAMP Activity Assay (Assay 1):
(§2) All sample dilutions were made in duplicate.

Human GLP1R = Human GLP1R (Homo sapiens, UniProt P43220); assay: cAMP activity assay in assay medium (assay 1); format: cell-based; design: expressed in transfected cells; conditions: assay medium; Table 4; read-out: hGLP1R EC50
Description: as §1, §2

Human GLP1R, sequence (P43220 24-463): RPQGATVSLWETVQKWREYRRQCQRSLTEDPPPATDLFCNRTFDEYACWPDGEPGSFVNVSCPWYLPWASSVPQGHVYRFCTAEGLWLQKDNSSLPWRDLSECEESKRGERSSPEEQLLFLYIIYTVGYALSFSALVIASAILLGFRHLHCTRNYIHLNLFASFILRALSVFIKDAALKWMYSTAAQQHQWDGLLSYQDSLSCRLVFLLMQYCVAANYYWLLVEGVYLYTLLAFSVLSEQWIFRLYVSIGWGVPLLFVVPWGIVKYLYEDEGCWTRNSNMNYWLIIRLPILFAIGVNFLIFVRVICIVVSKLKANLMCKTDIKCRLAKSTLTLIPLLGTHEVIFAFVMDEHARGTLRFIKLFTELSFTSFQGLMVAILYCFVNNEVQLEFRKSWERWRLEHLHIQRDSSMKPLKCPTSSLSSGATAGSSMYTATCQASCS
T1 sequence (P47871 26-477): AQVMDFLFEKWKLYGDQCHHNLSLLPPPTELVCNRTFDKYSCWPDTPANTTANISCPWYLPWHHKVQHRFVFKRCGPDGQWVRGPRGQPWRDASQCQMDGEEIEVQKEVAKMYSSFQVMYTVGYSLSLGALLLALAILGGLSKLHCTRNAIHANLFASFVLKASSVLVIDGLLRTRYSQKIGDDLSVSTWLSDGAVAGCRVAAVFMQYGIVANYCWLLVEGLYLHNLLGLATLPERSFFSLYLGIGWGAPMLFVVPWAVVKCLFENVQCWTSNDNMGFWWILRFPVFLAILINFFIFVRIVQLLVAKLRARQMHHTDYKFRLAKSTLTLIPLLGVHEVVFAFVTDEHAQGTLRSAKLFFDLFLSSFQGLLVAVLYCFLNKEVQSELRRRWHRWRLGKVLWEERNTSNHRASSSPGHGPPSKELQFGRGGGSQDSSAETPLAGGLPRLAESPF

Structure (SMILES)	EC50 (Human GlucR)	EC50 (Human GLP1R)
CCCCCCCCCCCCCCCC(=O)N[C@@H](CCC(=O)NCCCC[C@H](NC(=O)[C@H](CO)NC(=O)[C@H](Cc1ccc(O)cc1)NC(=O)[C@H](CC(=O)O)NC(=O)[C@H](CO)NC(=O)[C@@H](NC(=O)[C@H](Cc1ccccc1)NC(=O)[C@@H](NC(=O)CNC(=O)[C@H](CCC(N)=O)NC(=O)CNC(=O)[C@@H](N)Cc1c[nH]cn1)[C@@H](C)O)[C@@H](C)O)C(=O)N[C@@H](Cc1ccc(O)cc1)C(=O)N[C@@H](CC(C)C)C(=O)N[C@@H](CC(=O)O)C(=O)N[C@@H](CO)C(=O)N[C@@H](CCC(=O)O)C(=O)N[C@@H](CCCNC(=N)N)C(=O)N[C@@H](C)C(=O)N[C@@H](CCC(N)=O)C(=O)N[C@@H](CC(=O)O)C(=O)N[C@@H](Cc1ccccc1)C(=O)N[C@H](C(=O)N[C@@H](CCC(N)=O)C(=O)N[C@@H](Cc1c[nH]c2ccccc12)C(=O)N[C@@H](CC(C)C)C(=O)N[C@@H](CCC(=O)O)C(=O)N[C@@H](CCCNC(=N)N)C(=O)NCC(=O)NCC(N)=O)C(C)C)C(=O)O [g701] (H-HGQGTFTSDYSK([γGlu-Palmitoyl])YLDSERAQDFVQWLERGG-NH2; N-terminus assumed)	3.83 nM	7.4 nM
CCCCCCCCCCCCCCCC(=O)N[C@@H](CCC(=O)NCCCC[C@H](NC(=O)[C@@H](NC(=O)[C@H](Cc1ccccc1)NC(=O)[C@H](CC(=O)O)NC(=O)[C@H](CCC(N)=O)NC(=O)[C@H](C)NC(=O)[C@H](CCCNC(=N)N)NC(=O)[C@H](CCCNC(=N)N)NC(=O)[C@H](CO)NC(=O)[C@H](CC(=O)O)NC(=O)[C@H](CC(C)C)NC(=O)[C@H](Cc1ccc(O)cc1)NC(=O)[C@H](CCCCN)NC(=O)[C@H](CO)NC(=O)[C@H](Cc1ccc(O)cc1)NC(=O)[C@H](CC(=O)O)NC(=O)[C@H](CO)NC(=O)[C@@H](NC(=O)[C@H](Cc1ccccc1)NC(=O)[C@@H](NC(=O)CNC(=O)[C@H](CCC(N)=O)NC(=O)[C@H](CO)NC(=O)[C@@H](N)Cc1c[nH]cn1)[C@@H](C)O)[C@@H](C)O)C(C)C)C(=O)N[C@@H](Cc1c[nH]c2ccccc12)C(=O)N[C@@H](CC(C)C)C(=O)N[C@@H](CCC(=O)O)C(=O)N[C@@H](C)C(=O)NCC(=O)NCC(N)=O)C(=O)O [g746]	0.0354 nM	11.5 nM
CC(C)C[C@H](NC(=O)[C@H](Cc1ccc(O)cc1)NC(=O)[C@H](CCCCN)NC(=O)[C@H](CO)NC(=O)[C@H](Cc1ccc(O)cc1)NC(=O)[C@H](CC(=O)O)NC(=O)[C@H](CO)NC(=O)[C@@H](NC(=O)[C@H](Cc1ccccc1)NC(=O)[C@@H](NC(=O)CNC(=O)[C@H](CCC(N)=O)NC(=O)[C@H](CO)NC(=O)[C@@H](N)Cc1c[nH]cn1)[C@@H](C)O)[C@@H](C)O)C(=O)N[C@@H](CC(=O)O)C(=O)N[C@@H](CO)C(=O)N[C@@H](CCCNC(=N)N)C(=O)N[C@@H](CCCNC(=N)N)C(=O)N[C@@H](C)C(=O)N[C@@H](CCC(N)=O)C(=O)N[C@@H](CC(=O)O)C(=O)N[C@@H](Cc1ccccc1)C(=O)N[C@H](C(=O)N[C@@H](CCC(N)=O)C(=O)N[C@@H](Cc1c[nH]c2ccccc12)C(=O)N[C@@H](CC(C)C)C(=O)N[C@H](C(=O)N[C@@H](CCCNC(=N)N)C(=O)NCC(=O)NCC(=O)N[C@@H](CO)C(=O)NCC(=O)N[C@@H](CO)C(=O)NCC(=O)N[C@@H](CO)C(=O)NCC(N)=O)C(C)C)C(C)C [g402]	0.0596 nM	0.0857 nM

— patent US20200354426A1 (MEDIMMUNE LIMITED, priority 2016, published 2020)
